Test results reported in PubChem BioAssay AID248 (DTP/NCI, 2004).
“And” between values parts separate entries of the source, which are not always exact repeats. Equal entries are not always repeated. Toxic doses and inconclusive results are not listed. Cut-off read from the data, not from the text of the source: active = T/C of 150% or more; inactive = T/C below 125%.

Tested on: L1210 leukemia ip in BDF1 mice, survival T/C
Assay: NCI In Vivo Anticancer Drug Screen. Data for tumor model L1210 Leukemia (intraperitoneal) in B6D2F1 (BDF1) mice
Conditions: endpoint: mean survival time, higher = longer survival
How it was run: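 Tumor cells were implanted, animals were treated, and survival was followed. The result divides the treated measurement by the vehicle-control measurement.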

[1] = dose: 100.0 mg/kg/injection, schedule: Q01DX009 (ip), vehicle: other
[2] = dose: 200.0 mg/kg/injection, schedule: Q01DX009 (ip), vehicle: other
[3] = dose: 100.0 mg/kg/injection, schedule: Q01DX001 (ip), vehicle: carboxymethylcellulose (CMC)
[4] = dose: 200.0 mg/kg/injection, schedule: Q01DX001 (ip), vehicle: carboxymethylcellulose (CMC)
[5] = dose: 400.0 mg/kg/injection, schedule: Q01DX001 (ip), vehicle: carboxymethylcellulose (CMC)
[6] = dose: 100.0 mg/kg/injection, schedule: Q01DX009 (ip), vehicle: saline
[7] = dose: 100.0 mg/kg/injection, schedule: Q04DX003 (ip), vehicle: saline with Tween-80
[8] = dose: 200.0 mg/kg/injection, schedule: Q04DX003 (ip), vehicle: saline with Tween-80
[9] = dose: 100.0 mg/kg/injection, schedule: Q04DX002 (ip), vehicle: saline
[10] = dose: 100.0 mg/kg/injection, schedule: Q01DX009 (ip), vehicle: Klucel (hydroxypropylcellulose) (HPC)
[11] = dose: 200.0 mg/kg/injection, schedule: Q01DX009 (ip), vehicle: Klucel (hydroxypropylcellulose) (HPC)
[12] = dose: 400.0 mg/kg/injection, schedule: Q01DX009 (ip), vehicle: Klucel (hydroxypropylcellulose) (HPC)
[13] = dose: 12.5 mg/kg/injection, schedule: Q01DX009 (ip), vehicle: saline
[14] = dose: 25.0 mg/kg/injection, schedule: Q01DX009 (ip), vehicle: saline
[15] = dose: 100.0 mg/kg/injection, schedule: Q04DX002 (ip), vehicle: Klucel (hydroxypropylcellulose) (HPC)

Measured: T/C

CC12CCC3(CC1CCC(OC(=O)c1ccccc1)C2)OCCO3 (centres undefined)
inactive: [1] 93 % of control | dose: 100.0 mg/kg/injection, schedule: Q04DX003 (ip), vehicle: other 108 % of control | [2] 95 % of control | dose: 200.0 mg/kg/injection, schedule: Q04DX003 (ip), vehicle: other 106 % of control | dose: 400.0 mg/kg/injection, schedule: Q01DX009 (ip), vehicle: other 90 % of control | dose: 400.0 mg/kg/injection, schedule: Q04DX003 (ip), vehicle: other 95 % of control

O=[N+]([O-])c1ccc(O)c(CN(Cc2ccccc2)Cc2c(O)ccc3ccccc23)c1
inactive: [3] 98 % of control | [4] 93 % of control | [5] 96 % of control

O=C1OC2CC3CCC2C13 (centres undefined)
inactive: dose: 6.25 mg/kg/injection, schedule: Q01DX001 (ip), vehicle: saline 96 % of control | dose: 12.5 mg/kg/injection, schedule: Q01DX001 (ip), vehicle: saline 96 % of control | dose: 25.0 mg/kg/injection, schedule: Q01DX001 (ip), vehicle: saline 98 % of control

CCOC(=O)NO
inactive: dose: 27.0 mg/kg/injection, schedule: Q03HX024 (ip), vehicle: saline 95 % of control | dose: 40.0 mg/kg/injection, schedule: Q03HX024 (ip), vehicle: saline 97 % of control | dose: 50.0 mg/kg/injection, schedule: Q01DX Z (ip), vehicle: carboxymethylcellulose (CMC) 93 % of control | dose: 60.0 mg/kg/injection, schedule: Q03HX024 (ip), vehicle: saline 100 % of control | dose: 90.0 mg/kg/injection, schedule: Q03HX024 (ip), vehicle: saline 100 % of control | [6] 97 % of control and 98 % of control | dose: 100.0 mg/kg/injection, schedule: Q01DX Z (ip), vehicle: carboxymethylcellulose (CMC) 109 % of control | dose: 120.0 mg/kg/injection, schedule: Q01DX009 (ip), vehicle: saline 110 % of control | dose: 135.0 mg/kg/injection, schedule: Q03HX024 (ip), vehicle: saline 124 % of control | dose: 180.0 mg/kg/injection, schedule: Q01DX009 (ip), vehicle: saline 119 % of control | dose: 200.0 mg/kg/injection, schedule: Q01DX009 (ip), vehicle: saline 95 % of control and 100 % of control | dose: 400.0 mg/kg/injection, schedule: Q01DX009 (ip), vehicle: saline 102 % of control and 107 % of control | dose: 600.0 mg/kg/injection, schedule: Q01DX009 (ip), vehicle: saline 117 % of control

NC(=S)N/N=C/c1cc2c3c(c1)CCCN3CCC2
inactive: [7] 109 % of control | [8] 103 % of control | dose: 400.0 mg/kg/injection, schedule: Q04DX003 (ip), vehicle: saline with Tween-80 103 % of control

N#CCc1c[nH]c2ccc(OCc3ccccc3)cc12
inactive: dose: 50.0 mg/kg/injection, schedule: Q01DX009 (ip), vehicle: other 100 % of control | [1] 94 % of control | [2] 108 % of control

CCN(CC)Cc1ccccc1COC(=O)c1ccc(OC)cc1
inactive: [9] 103 % of control | dose: 200.0 mg/kg/injection, schedule: Q04DX002 (ip), vehicle: saline 103 % of control

O=S(c1cc(Br)ccc1O)c1cc(Br)ccc1O
inactive: [3] 98 % of control | [4] 93 % of control | [5] 90 % of control

CCN1CC1
inactive: dose: 6.25 mg/kg/injection, schedule: Q01DX009 (ip), vehicle: Klucel (hydroxypropylcellulose) (HPC) 98 % of control | dose: 6.25 mg/kg/injection, schedule: Q04DX003 (ip), vehicle: Klucel (hydroxypropylcellulose) (HPC) 96 % of control | dose: 12.5 mg/kg/injection, schedule: Q01DX009 (ip), vehicle: Klucel (hydroxypropylcellulose) (HPC) 107 % of control | dose: 12.5 mg/kg/injection, schedule: Q04DX003 (ip), vehicle: Klucel (hydroxypropylcellulose) (HPC) 90 % of control | dose: 25.0 mg/kg/injection, schedule: Q04DX003 (ip), vehicle: Klucel (hydroxypropylcellulose) (HPC) 109 % of control

COc1cccc(C2=CCCCC2)c1
inactive: dose: 50.0 mg/kg/injection, schedule: Q01DX001 (ip), vehicle: carboxymethylcellulose (CMC) 96 % of control | [3] 93 % of control | [4] 96 % of control | [5] 98 % of control

c1ccc(/C(=N\Nc2nc3ccccc3s2)c2ccncc2)cc1
inactive: [10] 89 % of control | [11] 91 % of control | [12] 96 % of control

Cc1ccc(NC(=O)OCCN(C)C)cc1NC(=O)OCCN(C)C
inactive: [13] 98 % of control and 97 % of control | [14] 98 % of control | dose: 50.0 mg/kg/injection, schedule: Q01DX009 (ip), vehicle: saline 101 % of control and 92 % of control | [6] 102 % of control

O=C(Nc1ccccc1Cl)Oc1ccccc1-c1ccccc1
inactive: [15] 106 % of control | dose: 200.0 mg/kg/injection, schedule: Q04DX002 (ip), vehicle: Klucel (hydroxypropylcellulose) (HPC) 113 % of control | dose: 400.0 mg/kg/injection, schedule: Q04DX002 (ip), vehicle: Klucel (hydroxypropylcellulose) (HPC) 120 % of control

Nc1n[nH]c(C(=O)O)n1
inactive: [10] 98 % of control | dose: 100.0 mg/kg/injection, schedule: Q04DX003 (ip), vehicle: Klucel (hydroxypropylcellulose) (HPC) 107 % of control | [11] 107 % of control | dose: 200.0 mg/kg/injection, schedule: Q04DX003 (ip), vehicle: Klucel (hydroxypropylcellulose) (HPC) 93 % of control | [12] 105 % of control | dose: 400.0 mg/kg/injection, schedule: Q04DX003 (ip), vehicle: Klucel (hydroxypropylcellulose) (HPC) 93 % of control

CCN(CC)CCCC(C)Nc1cccc2c1C(=O)c1cccc(NC(C)CCCN(CC)CC)c1C2=O (centres undefined)
inactive: [13] 107 % of control | [14] 96 % of control and 118 % of control | dose: 25.0 mg/kg/injection, schedule: Q04DX002 (ip), vehicle: saline 98 % of control and 95 % of control | dose: 50.0 mg/kg/injection, schedule: Q04DX002 (ip), vehicle: saline 92 % of control and 98 % of control | [9] 102 % of control and 92 % of control

Cc1ccnc(NC(c2ccccc2)c2ccc3cccnc3c2O)c1 (centres undefined)
inactive: dose: 100.0 mg/kg/injection, schedule: Q01DX001 (ip), vehicle: saline 103 % of control | dose: 200.0 mg/kg/injection, schedule: Q01DX001 (ip), vehicle: saline 95 % of control | dose: 400.0 mg/kg/injection, schedule: Q01DX001 (ip), vehicle: saline 86 % of control

O=C(O)c1cc2ccccc2cc1O
inactive: dose: 100.0 mg/kg/injection, schedule: Q04DX002 (ip), vehicle: gum acacia 102 % of control | dose: 200.0 mg/kg/injection, schedule: Q04DX002 (ip), vehicle: gum acacia 94 % of control

O=C(CCCCCCCCC(=O)N/N=C/c1ccc(Cl)c(Cl)c1)N/N=C/c1ccc(Cl)c(Cl)c1
inactive: dose: 50.0 mg/kg/injection, schedule: Q01DX009 (ip), vehicle: saline with Tween-80 91 % of control | dose: 100.0 mg/kg/injection, schedule: Q01DX009 (ip), vehicle: saline with Tween-80 93 % of control | [7] 89 % of control | [8] 89 % of control

NC(=Nc1ccccc1)c1ccc(Cl)cc1
inactive: dose: 25.0 mg/kg/injection, schedule: Q04DX002 (ip), vehicle: Klucel (hydroxypropylcellulose) (HPC) 93 % of control | dose: 50.0 mg/kg/injection, schedule: Q04DX002 (ip), vehicle: Klucel (hydroxypropylcellulose) (HPC) 97 % of control | [15] 101 % of control and 115 % of control

O=C(CBr)c1cccc2c1Nc1ccccc1S2
inactive: dose: 75.0 mg/kg/injection, schedule: Q01DX001 (ip), vehicle: saline 98 % of control
